Where no end group is shown, it is not given here. [ ]: non-standard residue; d: D form. lysine‑palmitate = lysine-palmitate bound at the N-terminal end; pY = N[C@@H](Cc1ccc(OP(=O)(O)O)cc1)C(=O)O

Data set [1] has as its system diabetic mice (db/db). Briefly: Electroretinogram (ERG) recordings, topical eye drops. It is filed as in vivo. The note with it: eye drops 15 days. As to the method: 8-week old diabetic mice (db/db) received the miS1 peptide in the form of eye drops (5 μL drops in each eye; 10 mg/mL; twice a day for 15 days; n=7 mice). Diabetic mice treated with the non-functional peptide Mut (n=7), treated with vehicle and non-diabetic mice (db/+) were used as controls. The eye drops were directly administered on the upper surface of the cornea of each eye using a micropipette. The weight and glycemia (colorimetric assay) were controlled throughout the study period. On day 15, the drop with the miS1 peptide or vehicle was administered about two hours before autopsy. […]
Electroretinogram (ERG) recordings were performed in darkness-adapted anesthetized mice (12 hours overnight). Focal electroretinogram (Ferg) recordings were measured using a Micron III Focal ERG system (Phoenix Research Labs, Pleasanton, Calif.). […] The ERG responses of both eyes were recorded in response to 20 ms white light stimuli. […] The ERG signals were amplified, the filtered band was between 0.5 and 1000 Hz, and was analyzed with LabScribe-2 software (BioSeb, Vitrolles, France) in order to calculate the a-wave and b-wave amplitude and implicit time, as recommended by the International Society of Clinical Electrophysiology of Vision (ISCEV) (Marmor et al Doc Ophtalmol 108: 107 a 144). […]

In data set [2] the test system is diabetic mice (db/db). Briefly: Retinal IL-1β mRNA expression by RT-PCR. Format: in vivo. To be noted: eye drops 15 days, retina mRNA RT-PCR. As to the method:
8-week old diabetic mice (db/db) received the miS1 peptide in the form of eye drops (5 μL drops in each eye; 10 mg/mL; twice a day for 15 days; n=7 mice). Diabetic mice treated with the non-functional peptide Mut (n=7), treated with vehicle and non-diabetic mice (db/+) were used as controls. The eye drops were directly administered on the upper surface of the cornea of each eye using a micropipette. The weight and glycemia (colorimetric assay) were controlled throughout the study period. On day 15, the drop with the miS1 peptide or vehicle was administered about two hours before autopsy. The animals were euthanized by cervical dislocation and the enucleated eyes were immediately frozen and dorsoventral sections of […] were cut for analyzing retinal morphology and other immunohistochemical analyses.
The expression of IL-1β, TNF-α and IL-6 was evaluated. The total RNA was extracted with RNeasy Mini Kit with DNAse digestion (QIAGEN, distributed by IZASA, Barcelona, Spain) according to manufacturer's instructions. The RNA (1 μg) was used for reverse transcription with random hexanucleotide primers and Applied Biosystems reagents (Applied Biosystems, Madrid, Spain) in a reaction volume of 20 μl. […] The ΔΔCt method was used for obtaining the relative quantification (RQ).

Data set [3] deals with streptozotocin diabetic apoE-deficient mice. Briefly: Metabolic and renal data in mice with type 1 diabetes, intraperitoneal treatment. Format: in vivo. To be noted: STZ apoE mice, 65 μg/day i.p. every 2 days, 8 weeks. As to the method:
(§1) Apolipoprotein E (apoE)-deficient male mice of 8 weeks of age were made diabetic through streptozotocin injection (125 mg/kg weight in 10 mM citrate, pH 4.5, two consecutive days). After 2 weeks, animals with glycemia greater than 350 mg/dL were randomly distributed in two groups (n=9 animals per group): treated animals (miS1 peptide: 65 μg/day, 200 μL, intraperitoneally, every 2 days for 8 weeks) and controls (vehicle). The weight and glycemia (colorimetric assay) were controlled throughout the study period.
(§2) At the end of the study, the anesthetized animals were perfused with saline and sacrificed, processing the tissues immediately. In renal cortex (paraffin sections, 5 μm) the glomerular and tubulointerstitial morphology was studied by means of PAS and Masson trichrome staining and the lesions were evaluated in a double-blind and semi-quantitative manner in a scale of 0-3. Renal fibrosis was determined by means of Picro-Sirius red staining and the infiltrating inflammatory cells (F4/80+ macrophages and CD3+ T-lymphocytes) by immunohistochemistry. In the aorta, the root/arch zone (serial cryosections of 8 μm from the valves to an extension of 1000 μm) was stained with Oil-red-O/hematoxylin and the area of the atherosclerotic lesion was quantified (Metamorph program). Plaque stability was assessed by collagen fiber staining with Picro-Sirius red and α-actin immunofluorescence. The inflammatory component was determined by means of immunohistochemistry for monocyte/macrophages (Moma2). The Image Pro-Plus program was used for quantifying positive stainings. The biochemical parameters in serum (glycated hemoglobin, cholesterol and creatinine) and in urine (albumin and creatinine) were determined by means of conventional commercial kits.

Data set [4] shares this test system. Briefly: Kidney histology (lesions, fibrosis, inflammatory infiltrate) in diabetic mice. It is filed as in vivo. The note with it: STZ apoE mice, i.p. 8 weeks. As to the method:
as §1, §2

The next data set has as its system STAT1. Briefly: STAT1 activation in cytokine-stimulated macrophages (Western blot). It is filed as cell-based, murine. The note with it: pre-incubation 50-150 ug/mL (Mut 150 ug/mL), IFNγ and IL-6 stimulation. As to the method:
(§3) RAW264.7 macrophages and vascular smooth muscle cells (VSMC) cultured in a medium with 10% fetal bovine serum were used. The cells were synchronized (24 hours without serum), pre-incubated for 90 minutes with different peptide concentrations (miS1 or the control thereof, 50-150 μg/mL) and stimulated with cytokines (IFNγ […]). STAT activation was analyzed by means of Western blot for phosphorylated STAT1/STAT3 isoforms. JAK/STAT pathway-dependent chemokine (CCL2) expression was determined by means of ELISA. Cell viability was analyzed by MTT colorimetric assay and macrophage migration was analyzed by chemotaxis assay.

For data set [5], the system named is vascular smooth muscle cells (VSMC). Briefly: Cytokine-induced CCL2 production in VSMC (ELISA). It is filed as cell-based, mouse. The note with it: pre-incubation with peptide, IFNγ and IL-6. As to the method: as §3

For the substance “miS1: SEQ ID NO 1 DTHFRTFRSHSDYRRI, kinase inhibitory region of murine SOCS1, bound to lysine-palmitate at the N-terminal end, tyrosine phosphorylated ({lysine‑palmitate}-DTHFRTFRSHSD[pY]RRI)”, the “ERG a-wave and b-wave implicit time” value in the data set on diabetic mice (db/db) [1] (diabetes-induced increase) is given as “declines”. In addition, in the data set with diabetic mice (db/db) [1] (diabetes-induced reduction), the “ERG a-wave and b-wave amplitude” value was “declines the reduction”. Further, the “IL-1β increase induced by diabetes” value with diabetic mice (db/db) [2] was “prevented the increase”. Moreover, the “weight loss caused by chronic diabetes” value in data set [3] is “less pronounced”. Also, in data set [3] (end of study), the ALT was found to be 97 ± 17 U/L, the AST turned out to be 176 ± 20 U/L, the Blood glucose is on record as 549 ± 29 mg/dL and the GHbA1c turned out to be 503 ± 76 µg/mL. In data set [3] (end of study), this substance came in with an HDL cholesterol of 11 ± 1 mg/dL, an LDL cholesterol of 597 ± 61 mg/dL, a Total cholesterol of 611 ± 59 mg/dL and a Triglycerides of 89 ± 23 mg/dL. In data set [3] (end of study), this substance had a Weight of 21.9 ± 0.6 g. Moreover, the Urine albumin-creatinine ratio in data set [3] (p < 0.01 vs control) turned out to be 16.2 ± 61.1 µg/µmol. The substance also yielded a Serum creatinine in data set [3] (p < 0.02 vs control) of 0.24 ± 0.04 mg/dL. In addition, in data set [3] (p < 0.05 vs control), the Kidney-body mass ratio turned out to be 16.4 ± 1.3 mg/g. Moreover, the “decrease in albumin levels (renal function)” value in data set [3] (vs vehicle) came out at 28%. Moreover, in data set [4], the “inflammatory lymphocyte and macrophage infiltrate in kidney” value is on record as “significantly reduced”; the tubulointerstitial fibrosis entry was “significantly reduced”. Further, in data set [4] (vs vehicle), the “glomerular lesions (hypercellularity, mesangial expansion and glomerular hypertrophy)” value is “improvement”; the “tubulointerstitial lesions (atrophy, degeneration and infiltrate)” value is recorded as “improvement”. Besides, in the data set with STAT1, the “STAT1 activation (phosphorylation)” value is “reduced STAT1 and STAT3 activation in a dose-dependent manner”. For the same substance, the “reduction of cytokine-induced CCL2 production” value in data set [5] is 30-40%.

For the origin of these results see patent US10532082B2, “SOCS1-derived peptide for use in chronic complications of diabetes” (Fundació Hospital Universitari Vall d'Hebron-Institut de …, priority 2014, dated 2020).
